Data published in patent publication US20180284095A1, “BIOMARKERS ASSOCIATED WITH LSD1 INHIBITORS AND USES THEREOF” (Oryzon Genomics, S.A., priority 2015, published 2018).

Columns and labels:
TUBB2C = test: Microarray gene expression in brain, spleen and liver of Hsd:Athymic Nude-Foxn1nu mice (Example 7), housekeeping gene; assay type: in vivo, mouse
Description: (§1) Total RNA was extracted from samples using the RNeasy extraction kit (Qiagen). The quality and concentration of the RNA was analyzed using the Agilent 2100 bioanalyzer and NanoDrop™ ND-1000 (Thermo Scientific). Samples with RNA integrity number (RIN)<6.0 were discarded. Total RNA (0.5 μg) amplification and labelling with Cy3 or Cy5 was carried out using the Eberwein mRNA amplification procedure (Van Gelder et al, Proc Natl Acad Sci USA 1990, 87:1663-1667) employing the MessageAmp™ aRNA amplification kit from Ambion (Applied Biosystems) following the manufacturer's instructions with minor modifications. As hybridization controls, plant mRNAs were transcribed from a plasmid containing the Zea mays Xet (xyloglucan endo-transglycosylase) cDNA and from a plasmid containing the Zea mays Zmmyb42 cDNA, independently prepared Cy3 and Cy5 labelled aRNA from these two RNAs using the Eberwein mRNA amplification procedure (as disclosed in Cerdà et al, Gen Comp Endocrinol 2008, 156:470-481).
(§2) The Cy3- and Cy5-labelled cRNAs and spikes were combined and hybridized to the microarray described in Example 2.6 for 17 h at 60° C. using Agilent's gaskets G2534-60002, G2534A hybridization chambers and DNA Hybridization Oven G2545A, according to the manufacturer's instructions. More specifically, equal amounts of Cy3 and Cy5 labeled Xet aRNA as well as equal amounts of Cy3 and Cy5 labeled Zmmyb42 aRNA were spiked into each mixture hybridized to the array. Arrays were washed and raw data were obtained using Agilent's DNA Microarray Scanner G2505B and Feature Extraction software (v10.1). The raw fluorescence intensity data were processed using applicant's proprietary software, and consists in the following operations:
(§3) Data normalization was carried out by an improved version of the nonlinear Q-splines normalization method (Workman et al., Genome Biol 2002, 3(9):research0048.1-0048.16). Normalization results were presented graphically as MA plots, as first described by Dudoit et al (Dudoit et al, Statistica Sinica, 2002, 12:111-139). Each point corresponds to a probe of the DNA array. M values (vertical axis) are the log-differential expression ratios. A values (horizontal axis) are the log-intensities of the spots. M and A are calculated from the Cy5 and Cy3 intensity values as of each spot. The DNA Array data is normalized using an improved version of non-linear Q-Splines normalization described by Workman et al., Genome Biol 2002, 3(9):research0048.1-0048.16. This process is useful to correct the deviation of the M values from the statistical assumption that most of the spots have M=0 in MA plots. The method allows the adjustment of all M values to form a cloud centered at M=0 in all intensity ranges. The data used to calculate the normalization fitting curve is the totality of the raw measurement dataset, excluding the signals for the probes for the spiked-in plant RNA controls and negative controls. In order to be able to normalize properly the data among all the experiments, the probe-set must include an important group of genes that should have no change (M=0) in the experiment. The normalization function is then applied to all the data, including controls.
(§4) Normalized and log-transformed data were used to calculate log 2 (sample/control) and Fold Change (FC) values. No background subtraction was applied to the signal intensity values during data processing, permitting robust selection of differentially expressed genes with low expression levels at the cost of potential sub-estimation of change when intensity levels are close to the array background level.
(§5) Powered Compound 3, 4 or 5 was dissolved in a 20% solution of 2-hydroxypropyl-R-cyclodextrin in water at the appropriate concentrations, vortexed and placed in an ultrasonic bath for 5 minutes.
(§6) Hsd:Athymic Nude-Foxn1nu mice were maintained in air- and temperature-controlled cages with regular supply of water and food. A maximum of 6 mice/cage were raised. […]

TUBB3 = test: as above; assay type: in vivo, mouse
Description: as §1, §2, §3, §4, §5, §6

NC(=O)CN[C@H]1C[C@@H]1c1ccc(OCc2ccccc2)cc1 (racemic) [Compound 3, 2-(((trans)-2-(4-(benzyloxy)phenyl)cyclopropyl)amino)acetamide]
Hybridization signal sample_Cy5 (TUBB2C; BRAIN, 5 mg/kg): 5903.12 | log2 (sample/control) (TUBB2C; BRAIN, 5 mg/kg vs VEH): 0.09115 | Hybridization signal sample_Cy5 (TUBB2C; BRAIN, 10 mg/kg): 6228.65 | log2 (sample/control) (TUBB2C; BRAIN, 10 mg/kg vs VEH): −0.008955 | Hybridization signal sample_Cy5 (TUBB2C; BRAIN, 20 mg/kg): 6935.27 | log2 (sample/control) (TUBB2C; BRAIN, 20 mg/kg vs VEH): 0.07289 | Hybridization signal sample_Cy5 (TUBB2C; BRAIN, 40 mg/kg): 7405.34 | log2 (sample/control) (TUBB2C; BRAIN, 40 mg/kg vs VEH): 0.06328 | Hybridization signal sample_Cy5 (TUBB2C; LIVER, 5 mg/kg): 2676.03 | log2 (sample/control) (TUBB2C; LIVER, 5 mg/kg vs VEH): −0.1194 | Hybridization signal sample_Cy5 (TUBB2C; LIVER, 10 mg/kg): 2301.43 | log2 (sample/control) (TUBB2C; LIVER, 10 mg/kg vs VEH): −0.2687 | Hybridization signal sample_Cy5 (TUBB2C; LIVER, 20 mg/kg): 2059.18 | log2 (sample/control) (TUBB2C; LIVER, 20 mg/kg vs VEH): −0.578 | Hybridization signal sample_Cy5 (TUBB2C; LIVER, 40 mg/kg): 1551.2 | log2 (sample/control) (TUBB2C; LIVER, 40 mg/kg vs VEH): −0.9728 | Hybridization signal sample_Cy5 (TUBB2C; SPLEEN, 5 mg/kg): 6245.92 | log2 (sample/control) (TUBB2C; SPLEEN, 5 mg/kg vs VEH): −0.05272 | Hybridization signal sample_Cy5 (TUBB2C; SPLEEN, 10 mg/kg): 4019.89 | log2 (sample/control) (TUBB2C; SPLEEN, 10 mg/kg vs VEH): −0.4863 | Hybridization signal sample_Cy5 (TUBB2C; SPLEEN, 20 mg/kg): 4597.76 | log2 (sample/control) (TUBB2C; SPLEEN, 20 mg/kg vs VEH): −0.4097 | Hybridization signal sample_Cy5 (TUBB2C; SPLEEN, 40 mg/kg): 8986.8 | log2 (sample/control) (TUBB2C; SPLEEN, 40 mg/kg vs VEH): −0.9476 | Hybridization signal sample_Cy5 (TUBB3; BRAIN, TUBB3, 5 mg/kg): 2574.04 | log2 (sample/control) (TUBB3; BRAIN, TUBB3, 5 mg/kg vs VEH): −0.223 | Hybridization signal sample_Cy5 (TUBB3; BRAIN, TUBB3, 10 mg/kg): 3248.86 | log2 (sample/control) (TUBB3; BRAIN, TUBB3, 10 mg/kg vs VEH): −0.06283 | Hybridization signal sample_Cy5 (TUBB3; BRAIN, TUBB3, 20 mg/kg): 3078.53 | log2 (sample/control) (TUBB3; BRAIN, TUBB3, 20 mg/kg vs VEH): −0.0238 | Hybridization signal sample_Cy5 (TUBB3; BRAIN, TUBB3, 40 mg/kg): 3573.76 | log2 (sample/control) (TUBB3; BRAIN, TUBB3, 40 mg/kg vs VEH): 0.02054 | Hybridization signal sample_Cy5 (TUBB3; LIVER, TUBB3, 5 mg/kg): 64.7691 | log2 (sample/control) (TUBB3; LIVER, TUBB3, 5 mg/kg vs VEH): −0.09742 | Hybridization signal sample_Cy5 (TUBB3; LIVER, TUBB3, 10 mg/kg): 68.7068 | log2 (sample/control) (TUBB3; LIVER, TUBB3, 10 mg/kg vs VEH): 0.02345 | Hybridization signal sample_Cy5 (TUBB3; LIVER, TUBB3, 20 mg/kg): 48.4567 | log2 (sample/control) (TUBB3; LIVER, TUBB3, 20 mg/kg vs VEH): −0.04225 | Hybridization signal sample_Cy5 (TUBB3; LIVER, TUBB3, 40 mg/kg): 46.9101 | log2 (sample/control) (TUBB3; LIVER, TUBB3, 40 mg/kg vs VEH): 0.01927 | Hybridization signal sample_Cy5 (TUBB3; SPLEEN, TUBB3, 5 mg/kg): 58.6845 | log2 (sample/control) (TUBB3; SPLEEN, TUBB3, 5 mg/kg vs VEH): −0.02944 | Hybridization signal sample_Cy5 (TUBB3; SPLEEN, TUBB3, 10 mg/kg): 52.6685 | log2 (sample/control) (TUBB3; SPLEEN, TUBB3, 10 mg/kg vs VEH): −0.02259 | Hybridization signal sample_Cy5 (TUBB3; SPLEEN, TUBB3, 20 mg/kg): 62.5361 | log2 (sample/control) (TUBB3; SPLEEN, TUBB3, 20 mg/kg vs VEH): −0.1183 | Hybridization signal sample_Cy5 (TUBB3; SPLEEN, TUBB3, 40 mg/kg): 88.3418 | log2 (sample/control) (TUBB3; SPLEEN, TUBB3, 40 mg/kg vs VEH): 0.169

CN1CCN(C(=O)CN[C@H]2C[C@@H]2c2ccc(OCc3ccccc3)cc2)CC1 (racemic) [Compound 4, 2-(((trans)-2-(4-(benzyloxy)phenyl)cyclopropyl)amino)-1-(4-methylpiperazin-1-yl)ethan-1-one]
Hybridization signal sample_Cy5 (TUBB2C; BRAIN, 1 mg/kg): 10016.7 | log2 (sample/control) (TUBB2C; BRAIN, 1 mg/kg vs VEH): −0.04912 | Hybridization signal sample_Cy5 (TUBB2C; BRAIN, 3 mg/kg): 9877.42 | log2 (sample/control) (TUBB2C; BRAIN, 3 mg/kg vs VEH): −0.06585 | Hybridization signal sample_Cy5 (TUBB2C; BRAIN, 10 mg/kg): 11991.7 | log2 (sample/control) (TUBB2C; BRAIN, 10 mg/kg vs VEH): −0.04291 | Hybridization signal sample_Cy5 (TUBB2C; LIVER, 1 mg/kg): 4327.04 | log2 (sample/control) (TUBB2C; LIVER, 1 mg/kg vs VEH): 0.2971 | Hybridization signal sample_Cy5 (TUBB2C; LIVER, 3 mg/kg): 3201.33 | log2 (sample/control) (TUBB2C; LIVER, 3 mg/kg vs VEH): 0.1069 | Hybridization signal sample_Cy5 (TUBB2C; LIVER, 10 mg/kg): 3143.68 | log2 (sample/control) (TUBB2C; LIVER, 10 mg/kg vs VEH): 0.3292 | Hybridization signal sample_Cy5 (TUBB2C; SPLEEN, 1 mg/kg): 13305.5 | log2 (sample/control) (TUBB2C; SPLEEN, 1 mg/kg vs VEH): −0.3124 | Hybridization signal sample_Cy5 (TUBB2C; SPLEEN, 3 mg/kg): 11689.6 | log2 (sample/control) (TUBB2C; SPLEEN, 3 mg/kg vs VEH): −0.4339 | Hybridization signal sample_Cy5 (TUBB2C; SPLEEN, 10 mg/kg): 6541.2 | log2 (sample/control) (TUBB2C; SPLEEN, 10 mg/kg vs VEH): −1.316 | Hybridization signal sample_Cy5 (TUBB3; BRAIN, TUBB3, 1 mg/kg): 4992.04 | log2 (sample/control) (TUBB3; BRAIN, TUBB3, 1 mg/kg vs VEH): −0.03825 | Hybridization signal sample_Cy5 (TUBB3; BRAIN, TUBB3, 3 mg/kg): 5129.04 | log2 (sample/control) (TUBB3; BRAIN, TUBB3, 3 mg/kg vs VEH): 0.07852 | Hybridization signal sample_Cy5 (TUBB3; BRAIN, TUBB3, 10 mg/kg): 5941.88 | log2 (sample/control) (TUBB3; BRAIN, TUBB3, 10 mg/kg vs VEH): −0.1778 | Hybridization signal sample_Cy5 (TUBB3; LIVER, TUBB3, 1 mg/kg): 91.4818 | log2 (sample/control) (TUBB3; LIVER, TUBB3, 1 mg/kg vs VEH): −0.409 | Hybridization signal sample_Cy5 (TUBB3; LIVER, TUBB3, 3 mg/kg): 66.7291 | log2 (sample/control) (TUBB3; LIVER, TUBB3, 3 mg/kg vs VEH): −0.2432 | Hybridization signal sample_Cy5 (TUBB3; LIVER, TUBB3, 10 mg/kg): 103.99 | log2 (sample/control) (TUBB3; LIVER, TUBB3, 10 mg/kg vs VEH): 0.6811 | Hybridization signal sample_Cy5 (TUBB3; SPLEEN, TUBB3, 1 mg/kg): 76.0246 | log2 (sample/control) (TUBB3; SPLEEN, TUBB3, 1 mg/kg vs VEH): 0.2314 | Hybridization signal sample_Cy5 (TUBB3; SPLEEN, TUBB3, 3 mg/kg): 114.188 | log2 (sample/control) (TUBB3; SPLEEN, TUBB3, 3 mg/kg vs VEH): 0.3352 | Hybridization signal sample_Cy5 (TUBB3; SPLEEN, TUBB3, 10 mg/kg): 154.437 | log2 (sample/control) (TUBB3; SPLEEN, TUBB3, 10 mg/kg vs VEH): 0.9169
